Among the data in a melting point compilation (Tetko et al.; mined from patent text by program, amines drawn as free bases though some values may be those of a salt) are melting point values, retold here.

SMILES strings stand for the structures.

Compound `CN(C(=O)N1Cc2ncn(Cc3ccccc3)c2CC1C(=O)O)c1ccccc1` (stereo not given) yielded a melting point of 220 to 222 °C.

`CS(=O)(=O)N1CC(=O)c2ccsc2C1` returned a melting point of 120 °C.

In the case of `COc1ccc(C2C(C(=O)c3ccc(OC(F)(F)F)cc3)=C(O)C(=O)N2c2ccc(C)nn2)cc1` (stereo not given), the melting point came out at 279 °C.

For `C=Cc1ncn2c1CN(C)C(=O)c1c(Cl)cccc1-2`, the melting point was 205 to 207 °C.

In the case of `CCOC(=O)C=C(Nc1ccc(O)c(=O)cc1)C(=O)OCC`, the melting point turned out to be 108 °C.

Turning to `Cc1cc(-c2ccc(C#N)cc2)sc1C(=O)O`, the melting point fell in the range of 248 to 253 °C.

With `CC1(C)OC(C(F)(F)F)Nc2ccc(-c3cccc(Cl)c3)cc21` (stereo not given), the melting point lay in the range of 108 to 109 °C.

In turn, `O=C(O)c1ccc(C#CC2(O)CN3CCC2CC3)cc1` (stereo not given) had a melting point of 288 to 290 °C.

Take `Cc1ccc2cc(NC(=O)c3cccc(SCc4cc(Nc5ccccc5)n[nH]4)c3)ccc2n1`: the melting point was in the range of 172 to 174 °C.

For `O=C1OCCN1c1cc(-c2ccnc(Nc3cccc(Cl)c3)n2)ccn1`, the melting point fell in the range of 162 to 163 °C.

The compound `Clc1ccc(C2Cc3cnc(Nc4ccc(CCN5CCCCC5)cc4)nc3-c3ccccc32)cc1Cl` (stereo not given) registered a melting point of 157 to 158 °C.

In turn, `Cc1ccc2c(c1)CCC1=C2CCC(=O)N1` came in with a melting point of 204 to 205 °C.

With `CCn1ncc(C(=O)c2ccc(S(C)(=O)=O)c(C3=NOCC3)c2Cl)c1OCc1ccccc1`, the melting point is 70 to 75 °C.

In turn, `CC(C)(C=O)S(=O)(=O)c1ccccc1` came in with a melting point of 103 to 104 °C.

In the case of `CC(C)Nc1cc(=O)n(-c2ccccc2)nc1-c1nc[nH]n1`, the melting point is 203 to 205 °C.

For `ON1C=CN(c2ccccc2)N1`, the melting point lay in the range of 284 to 285 °C.

In turn, `CC(=O)Nc1ccc(NC(C)=O)c2c1C(=O)c1ccccc1C2=O` had a melting point of 278 to 280 °C.

The compound `CC12CCC3C(CC=C4CC(O)CCC43C)C1CC=C2I` (stereo not given) showed a melting point of 169 to 171 °C.

`CCN(CC)c1ccc(C(c2ccc(N(C)C)cc2)c2ccc(N(C)C)cc2)c(OC(=O)Nc2ccccc2)c1` registered a melting point of 145 to 146 °C.

The compound `COc1ccc(CNc2ccccc2C(=O)Nc2ccc(Br)c(C(F)(F)F)c2)cn1` registered a melting point of 101 to 103 °C.

The compound `COC(CNC(=O)CCN1C(=O)NC(C)(C)C1=O)OC` returned a melting point of 123 °C.

`CCCCCCC[C@H](CC(=O)OC(C)(C)C)C(=O)N1C(=O)OC[C@@H]1C(C)C` showed a melting point of 49 to 51 °C.

`Cc1c(C(=O)Nc2ccc(OCC(C)(C)C)c(C#N)c2)cnn1CCO` gave a melting point of 98 to 100 °C.

Regarding `Cc1ccc(S(=O)(=O)NC(=O)C2C(=O)CC(C)CC2=O)cc1` (stereo not given), the melting point was found to be 122 °C.

`O=C(O)CCOCCCc1ccnc(-c2nc(=O)c3ccccc3s2)c1` returned a melting point of 154 °C.

`C[C@]12C[C@H](c3ccc(OCCCCCS(=O)(=O)CCCC(F)(F)C(F)(F)F)cc3)[C@@H]3c4ccc(OC5CCCC5)cc4CC[C@H]3[C@@H]1CC[C@@H]2O` displayed a melting point of 166 °C.

`Cc1nn(C)c(OC(=O)C(Cl)=C(Cl)Cl)c1C(=O)c1ccc(Cl)cc1Cl` gave a melting point of 141 to 142 °C.

In turn, `Cc1nc2cc(Cl)c(Cl)cc2n1C1CC(CO)C(O)C1O` (stereo not given) yielded a melting point of 198 to 200 °C.

`C=CC(=O)NC(=O)NCCS(=O)C=C` (stereo not given) displayed a melting point of 109 to 110 °C.

`COC(=O)Nc1nc2ccc(SC[Si](C)(C)C)cc2[nH]1` gave a melting point of 189 to 191 °C.

Turning to `CCON=C(C(C)=NOCc1ccccc1C(=NOC)C(=O)NC)c1ccc(OCc2cccc(C(F)(F)F)c2)cc1`, the melting point fell in the range of 130 to 132 °C.

`Cc1c(C)c2c(c(C)c1N)C(C)C(C)(N1CCN(C)CC1)O2` (stereo not given): the melting point fell in the range of 76 to 77 °C.

Consider `CC(=O)Nc1ccc2c3c(oc2c1)CC(C(=O)O)CC3` (stereo not given), for which the melting point is 229 to 230 °C.

Compound `CC(C)(C)OC(=O)c1ncn2c1cc(C(=O)N1CCN(C3CC3)CC1)c1cc(Cl)ccc12` yielded a melting point of 229 to 233 °C.

For the compound `CSc1nc(C)c(Cc2ccccc2)c(=O)[nH]1`, the melting point is 220 to 222 °C.

Broadly, the melting point is the temperature, or range, at which the solid turns liquid.
